From US10016494B2, “Antigenic epitopes from EBV gp350/220 and uses thereof” (VALORISATION-HSJ, LIMITED PARTNERSHIP, priority 2014, dated 2018)

Experiments:
[1] = test system: P3HR1 virus super-infection of Raji cells; assay: EBV antibody neutralization assay; format: cell-based, Epstein-Barr virus; details: FIG. 2B, log10 dilutions of 0.01 to 10 μg/ml
Description: Antibody neutralization potency was measured as the inhibition of EBV early antigen (EA) expression upon super-infection of Raji cells by P3HR1 virus (33). Mixtures of concentrated virus (2×10^4 EA-inducing units) and serial dilutions of purified antibody were incubated in a final volume of 0.1 ml for 60 min at 37° C. prior to the addition of 5×10^4 Raji cells. The Raji cell-virus mixture was further incubated for 60 min at 37° C. followed by resuspension in RPMI medium and a 2-day incubation at 37° C. The number of Raji cells expressing EA after cell culture was measured by immunofluorescence, and relative antibody neutralization potency per μg of antibody was calculated.

[2] = test system: anti-gp350 monoclonal antibody 72A1; assay: Peptide ELISA: 72A1 antibody binding to plate-coated gp350 mimetic peptides; set-up: species or system murine; details: for binding to the 72A1 antibody: FIG. 4A, peptide coated on ELISA plate; for Notes: reactivity with the 72A1 monoclonal antibody: Table III
Description: (§1) Gp350 mimetic peptides that were synthesized and HPLC purified to >70% (Elim Biopharmaceuticals®, Hayward, Calif.) were suspended at 2.5 μg/mL in 0.1M carbonate buffer pH 9 prior to their overnight incubation at 4° C. as 100 μL aliquots in a 96 well ELISA plate (Ultident®, St. Laurent, QC). Peptide-coated plates were washed 4× with PBS:0.05% Tween-20®, blocked with 1% BSA:PBS and incubated for a minimum of 2 h at room temperature (RT) with anti-gp350 monoclonal antibody 72A1, or the isotype-matched, background-control anti-LMP1 monoclonal antibody S-12 and 1:100 dilutions of commercial intravenous gamma globulin (IVIG) (18). Bound monoclonal antibodies were detected using biotin-conjugated goat anti-mouse IgG, biotin-conjugated anti-human IgG and horseradish peroxidase (HRP)-conjugated streptavidin (Jackson Immunoresearch Laboratories®, West Grove, Pa.) in conjunction with 3,3′,5,5′-Tetramethylbenzidine substrate (TMB solution, Bioshop®, Burlington ON). HRP enzyme activity was stopped with an equal volume of 1N HCl and wells read at 450nm.

[3] = test system: 72A1 antibody recognition of gp350 protein; assay: Competition ELISA: 72A1 pre-incubated with gp350 mimetic peptides in solution, then tested for binding to gp350; set-up: species or system Epstein-Barr virus; details: for inhibition of 72A1 antibody recognition of gp350 protein: FIG. 4B, peptide allowed to interact with 72A1 in solution
Description: Whole cell ELISA was performed using CEM cells or CEM cells expressing gp350. The cells were washed with PBS, suspended at 1×10^6 cells/mL in PBS and 40 μL aliquots were added to each ELISA plate well. Plates were vacuum-dried prior to cell fixation with cold methanol. Plates were washed with PBS and wells blocked in 1% BSA:PBS prior to a 1 h exposure to monoclonal antibody or monoclonal antibody that was pre-incubated for 2 or more hours with gp350 mimetic peptides. Bound monoclonal antibodies were detected using biotin-conjugated goat anti-mouse IgG, HRP-conjugated streptavidin as outlined above.
Although peptide 3 contained the amino acid sequence EID shown by mutation to result in a loss of 72A1 binding (31), the lack of noted binding by peptide 3 may have been due to inappropriate adsorption to the ELISA plate that interfered with antibody binding. To avoid potential ELISA plate interference, gp350 mimetic peptides were allowed to interact with 72A1 antibody in solution, and later the antibody was tested for its ability to bind to native gp350 protein.

[4] = test system: human IgG (IVIG, human EBV immune serum); assay: Peptide ELISA with commercial intravenous gamma globulin (IVIG); format: binding; details: FIG. 5, thirty-nine lots of IVIG, ± SD
Description: as §1
Although p2 was recognized by the murine monoclonal antibody 72A1 and was capable of generating antibodies that recognized the gp350 neutralizing epitope in mice, it is unknown whether EBV-positive human sera would recognize this gp350 mimetic peptide. The determination of human IgG reactivity against each of the three peptides could serve as a surrogate indicator of whether the gp350 mimetic peptides would be immunogenic or capable of generating an anti-gp350 antibody response. […] This was followed by p1 at levels of 1.83±0.07 pg/ml and by p3 with antibody levels of 1.7±0.06 pg/ml.

[5] = Peptide immunization of mice: anti-peptide IgG by ELISA; format: in vivo, Balb/C female mice; details: FIG. 7A, KLH-coupled peptide 100 μg i.p., after third immunization, ± SEM
Description: (§2) Balb/C female mice were immunized intraperitoneally with 100 μg of keyhole limpet hemocyanin (KLH)-coupled with gp350 mimetic peptide (Sigma Conjugation Kit) emulsified in Sigma Adjuvant System (Sigma-Aldrich). Mice were re-injected every 21 days and blood was drawn 14 days after the second injection. Following the third immunization, IgG levels of peptide reactivity were measured by ELISA.
(§3) Balb/C female mice were immunized intraperitoneally with gp350 mimetic peptides as described in Example 1 above. Following the third immunization, IgG levels of peptide reactivity were measured by ELISA. All mice generated antibodies to their respective peptides with average antibody concentrations (pg/ml) of 97±46 SEM, 122±67 and 981±577 for p1, p2 and p3, respectively (FIG. 7A).

native gp350 = assay: Peptide immunization of mice: serum recognition of native gp350; format: in vivo, Balb/C female mice; details: FIG. 7B, same mice sera, ± SEM
Description: as §2, §3

[6] = test system: 72A1 recognition of gp350; assay: Sera from peptide-immunized mice blocking biotinylated-72A1 binding to gp350; format: in vivo, Balb/C female mice; details: FIG. 7C, pooled serum from peptide immunized mice, 1:50 dilution
Description: Histogram of biotinylated-72A1 binding to gp350 protein that was pre-exposed to mouse preimmune (preimm) serum, pooled serum from peptide immunized mice (1:50 dilution), or 1 μg/ml 72A1, or 0.5 mg/ml BSA. Average OD±SEM was derived from three separate experiments. P-values≤0.05 are indicated (*).
as §2, §3

[7] = FIG. 4C, altered domain compared to peptide 2

Row | Substance | binding to the 72A1 antibody [2] | anti-peptide antibody levels in IVIG [4] [pg/mL] | average anti-peptide antibody concentration [5] [pg/mL] | average antibody concentration recognizing native gp350 (native gp350) [pg/mL] | also measured
1 | 72A1 antibody: well-known mouse monoclonal antibody (IgG1 isotype), EBV gp350 neutralizing, commercially available |  |  |  |  | block of P3HR1 EBV super-infection of Raji cells [1]: block P3HR1 virus superinfection of Raji cells
2 | AAAAAAAAQNPVYLIPETVPYIKWDN (SEQ ID NO: 33) (Epstein-Barr virus) [Peptide 2.2, Ala substitution of domain 1 of peptide 2] |  |  |  |  | binding activity compared to parental peptide 2 ([2]; FIG. 6B, peptide 2 = 100%): 56%; reduction in recognition of p2 by 72A1 antibody [3, 7]: 50%
3 | DDRTLQLAAAPVAALIPAVVPAIAWAA (SEQ ID NO: 34) (Epstein-Barr virus) [Peptide 2.3, Domain 1-LA-altered Domain 2] |  |  |  |  | binding to the 72A1 monoclonal antibody ([2]; FIGS. 6A and 6B, alanine substitutions): did not bind; recognition of p2 by 72A1 antibody after domain alteration [3, 7]: abolished recognition
4 | DDRTLQLAQNPVYLIPETVPYIKWDN (SEQ ID NO: 4) (Epstein-Barr virus) [Peptide 2] | strongly bound | 2.16 ± 0.08 | 122 ± 67 | 1.3 ± 0.9 | inhibition of 72A1 antibody recognition of gp350 protein [3]: 78%; inhibition of 72A1 recognition of gp350 by antisera [6]: 38%
5 | EEKSAEAAQQPADAAPDSAPDAKMDQ (SEQ ID NO: 32) (Epstein-Barr virus) [Peptide 2.1, 72a1 positive mimeotope] |  |  |  |  | Notes: reactivity with the 72A1 monoclonal antibody [2]: 72a1 positive
6 | GSAKPGNGSYFASVKTEMLGNEID (SEQ ID NO: 27) (Epstein-Barr virus) [Peptide 3, gp350 mimetic peptide encompassing the central area of the purported gp350 neutralizing domain] | did not bind | 1.7 ± 0.06 | 981 ± 577 | 4.1 ± 2.4 | inhibition of 72A1 antibody recognition of gp350 protein [3]: 8%; inhibition of 72A1 recognition of gp350 by antisera [6]: 23%
7 | SKAPESTTTSPTLNTTGFADY (SEQ ID NO: 31) (Epstein-Barr virus) [Peptide 1, reference compound] | did not bind | 1.83 ± 0.07 | 97 ± 46 | 0.015 ± 0.01 | ELISA activity with 72A1 ([2]; FIG. 6A, value subtracted from the peptide 2 series before plotting): 0.355 OD; Notes: reactivity with the 72A1 monoclonal antibody [2]: 72A1 non-reactive
